Reference: publication PMC12040169 (PLOS Biology, 2025)

Experiment: in vitro
Conditions: human, hela cells, % viability

Structure (SMILES)	viability at 28.5 h, 10 µM [%]	viability at 28.5 h, 10 µM (bulk resorufin, single well) [%]
O=C(c1cc(F)c(F)cc1F)N1CCC2(CCN(CCN3CCOCC3)C2)C1 (centres unmarked) [CBK132145C]	102	–
O=C1NC(=O)C(CCCCN2CCC3(CCN(C(=O)c4cc(F)c(F)cc4F)C3)C2)N1 (centres unmarked) [CBK132147]	84.8	–
COc1ccc(C(=O)N2CCC3(CCN(Cc4cccc(C#N)c4)C3)C2)cc1OC (centres unmarked) [CBK132153]	87.7	–
COc1ccc(C(=O)N2CCC3(CCN(Cc4cc(=O)[nH]c(=O)[nH]4)C3)C2)cc1OC (centres unmarked) [CBK132162]	108	–
CCOC(=O)C1(c2ccccc2)CCN(C(=O)c2ccc(OC(F)(F)F)cc2)CC1 [CBK132174]	–	96.2
CCOC(=O)C1(c2ccccc2)CCN(C(=O)Cc2ccc(Cl)c(Cl)c2)CC1 [CBK132175]	–	113
CCOC(=O)C1(c2ccccc2)CCN(C(=O)COc2ccc(F)cc2)CC1 [CBK132176]	–	93.8
CCOC(=O)C1(c2ccccc2)CCN(C(=O)C2COc3ccccc3O2)CC1 (centres unmarked) [CBK132178]	–	93.3
CCOC(=O)C1(c2ccccc2)CCN(C(=O)Cc2nnn[nH]2)CC1 [CBK132182]	–	94.6
CCOC(=O)C1(c2ccccc2)CCN(C(=O)COc2ccccc2OC)CC1 [CBK132183]	–	87.1
CCOC(=O)C1(c2ccccc2)CCN(C(=O)c2ccc3occc3c2)CC1 [CBK132187]	–	92.2
CCOC(=O)C1(c2ccccc2)CCN(C(=O)CC2NC(=O)NC2=O)CC1 (centres unmarked) [CBK132196]	–	93.7
CCOC(=O)C1(c2ccccc2)CCN(C(=O)c2ccco2)CC1 [CBK132199]	–	86.2
CCOC(=O)C1(c2ccccc2)CCN(C(=O)Cc2c[nH]cn2)CC1 [CBK132205]	–	94.3
CCOC(=O)C1(c2ccccc2)CCN(C(=O)c2ccc3ncccc3c2)CC1 [CBK132206]	–	107
COc1cc(CC(=O)Nc2cccc(-c3ccc(SC(F)(F)F)cc3)c2)cc(OC)c1OC [CBK132426]	100	–
Cc1cc(C)nc(N/C(=N\C(=O)Nc2ccccc2)NCc2cccnc2)n1 [CBK132681]	92.2	–
O=C(c1ccoc1)N1CCC2(CCCN(Cc3ccc(OC(F)(F)F)cc3)C2)C1 (centres unmarked) [CBK132801]	114	–
O=C(c1ccoc1)N1CCC2(CCCN(Cc3c(F)cccc3F)C2)C1 (centres unmarked) [CBK132806]	95.1	–
O=C(CN1CCCC2(CCN(C(=O)c3ccoc3)C2)C1)Nc1ccc(F)c(Cl)c1 (centres unmarked) [CBK132822]	92.7	–
CCN1CCCC2(CCN(C(=O)c3ccoc3)C2)C1 (centres unmarked) [CBK132832]	97.7	–

Structure (SMILES)	viability at 28.5 h, 10 µM [%]	viability at 28.5 h, 10 µM (bulk resorufin, single well) [%]
O=C1NC(=O)C(CCCCN2CCCC3(CCN(C(=O)c4ccoc4)C3)C2)N1 (centres unmarked) [CBK132833]	96.8	–
Cc1nc(CN2CCCC3(CCN(C(=O)c4ccoc4)C3)C2)cs1 (centres unmarked) [CBK132838]	97.6	–
COc1ccc(C(=O)N2CCC3(CCCN(Cc4nc5ccccc5[nH]4)C3)C2)cc1OC (centres unmarked) [CBK132847]	93.9	–
COc1ccc(C(=O)N2CCC3(CCCN(CC(=O)Nc4ncccn4)C3)C2)cc1OC (centres unmarked) [CBK132860]	105	–
COc1ccc(C(=O)N2CCC3(CCCN(CCN(C)C)C3)C2)cc1OC (centres unmarked) [CBK132873]	95.6	–
CC(C)(C)OC(=O)N1CCC(Oc2nccc3c2ccn3Cc2ccc(S(C)(=O)=O)cc2)CC1 [CBK132881]	89.2	–
CCOC(=O)N1CCC2(CC1)OCc1ccc(-c3ccc(S(C)(=O)=O)cc3)cc1O2 [CBK133035]	–	86.1
COc1ccc(C(=O)N2CCN(CC(=O)N3CCOCC3)CC2)cc1 [CBK133150]	108	–
COc1cc(NC(=O)Cn2cnc3c2c(=O)n(C)c(=O)n3C)c(OC)cc1Cl [CBK133231]	99.2	–
Cn1c(=O)c2c(ncn2CC(=O)Nc2ccccc2I)n(C)c1=O [CBK133275]	95.6	–
Cn1c(=O)c2c(ncn2CC(=O)Nc2cccnc2)n(C)c1=O [CBK133286]	94.5	–
Cn1c(=O)c2c(ncn2CC(=O)Nc2cccc(Br)c2)n(C)c1=O [CBK133287]	90.7	–
Cc1cc(Br)ccc1NC(=O)Cn1cnc2c1c(=O)n(C)c(=O)n2C [CBK133289]	95.6	–
Cn1c(=O)c2c(ncn2CC(=O)Nc2ccc(C#N)cc2)n(C)c1=O [CBK133466]	90.9	–
Cn1c(=O)c2c(ncn2CC(=O)Nc2ccc3ccccc3c2)n(C)c1=O [CBK133722]	81.2	–
CCCn1c(NCc2cccc(OC)c2O)nc2ccccc21 [CBK133763]	96.4	–
Cc1cccc(OCC(=O)N2CCN(Cc3ccccn3)CC2)c1 [CBK134023G]	92.3	–
COC(=O)c1ccc(NC(=O)Cn2nnc(-c3ccc(CN4CCOCC4)cc3)n2)cc1 [CBK134589]	95.4	–
Cc1ccc2cc(CN(CCN(C)C)C(=S)Nc3ccccc3)c(=O)[nH]c2c1 [CBK134909]	104	–
COc1ccc2[nH]c(=O)c(CN(CCN(C)C)C(=S)Nc3ccc(F)cc3)cc2c1 [CBK135011]	97.1	–
Cc1ccc(NC(=S)N(CCN(C)C)Cc2cc3ccc(C)cc3[nH]c2=O)c(C)c1 [CBK135134]	92.4	–

Structure (SMILES)	viability at 28.5 h, 10 µM [%]	viability at 28.5 h, 10 µM (bulk resorufin, single well) [%]
CN(C)CCN(Cc1cc2cc3c(cc2[nH]c1=O)OCO3)C(=S)Nc1ccc(F)cc1 [CBK135186]	91.2	–
COc1ccc2[nH]c(=O)c(CN(CCCN3CCOCC3)C(=O)Nc3cccc(Cl)c3)cc2c1 [CBK135402]	96.8	–
Nc1ccc(-c2nnn(CC(=O)NC3CCCCC3)n2)cc1 [CBK135771]	86.7	–
COc1ccc(CNC(=O)Cn2nnc(-c3ccc(NC(=O)C4CCCCC4)cc3)n2)cc1 [CBK135876]	101	–
Cc1cc(C)nc(N2CCC(C(=O)NCc3ccc(Cl)cc3)CC2)n1 [CBK136319]	94.8	–
CC(C)(C)OC(=O)NC(C)(C)C(=O)N1C[C@H](C(=O)N2CCC3(CC2)CN(S(C)(=O)=O)c2ccccc23)[C@@H](c2nc3ccccc3s2)C1 [CBK136737]	91.5	–
O=C(c1ccc(OC(F)(F)F)cc1)N1CCC2(CCN(Cc3ccccc3)CC2)C1 [CBK136746]	101	–
O=C(c1cc[nH]c1)N1CCC2(CCN(Cc3ccccc3)CC2)C1 [CBK136756]	86.9	–
Cc1cc(C(=O)N2CCC(Cn3cncn3)(C3CCCCC3)CC2)n[nH]1 [CBK136786]	99.2	–
O=C(C1COc2ccccc2O1)N1CCC(Cn2cncn2)(C2CCCCC2)CC1 (centres unmarked) [CBK136792]	102	–
CSCCC(=O)N1CCC(Cn2cncn2)(C2CCCCC2)CC1 [CBK136799]	102	–
Cc1cn(CC(=O)N2CCC(Cn3cncn3)(C3CCCCC3)CC2)c(=O)[nH]c1=O [CBK136800]	88.4	–
O=C(CN1CCOCC1)N1CCC(Cn2cncn2)(C2CCCCC2)CC1 [CBK136803]	95.7	–
O=C(c1ccco1)N1CCC(Cn2cncn2)(C2CCCCC2)CC1 [CBK136811]	87.2	–
CN1CCC[C@H]1C(=O)N1CCC(Cn2cncn2)(C2CCCCC2)CC1 [CBK136818]	101	–
CC(C)(N)CC(=O)N1CCC(Cn2cncn2)(C2CCCCC2)CC1 [CBK136822]	89.4	–
O=C(c1cncnc1)N1CCC(Cn2cncn2)(C2CCCCC2)CC1 [CBK136823]	92.7	–
O=C(c1ccc2[nH]c(=O)[nH]c2c1)N1CCC(Cn2cncn2)(C2CCCCC2)CC1 [CBK136824]	104	–
O=C(c1ccc(Oc2ccccc2)cc1)N1CCC2(CCN(Cc3ccccc3)C2)C1 (centres unmarked) [CBK136833]	99.3	–
O=C1NC(=O)C(CC(=O)N2CCC3(CCN(Cc4ccccc4)C3)C2)N1 (centres unmarked) [CBK136850]	88.8	–
O=C(c1c(F)cccc1F)N1CCCC2(CCN(Cc3ccccc3)C2)C1 (centres unmarked) [CBK136886]	108	–

Structure (SMILES)	viability at 28.5 h, 10 µM [%]	viability at 28.5 h, 10 µM (bulk resorufin, single well) [%]
O=C(O)CCC(=O)N1CCCC2(CCN(Cc3ccccc3)C2)C1 (centres unmarked) [CBK136890]	97	–
CCOC(=O)C1(C2CCCCC2)CCN(C(=O)c2cccc(C(F)(F)F)c2)CC1 [CBK136920]	91.7	–
CCOC(=O)C1(C2CCCCC2)CCN(C(=O)Cc2ccc(Cl)c(Cl)c2)CC1 [CBK136922]	95.2	–
CCOC(=O)C1(C2CCCCC2)CCN(C(=O)C2COc3ccccc3O2)CC1 (centres unmarked) [CBK136925]	101	–
CCOC(=O)C1(C2CCCCC2)CCN(C(=O)CCSC)CC1 [CBK136929]	113	–
CCOC(=O)C1(C2CCCCC2)CCN(C(=O)C(c2ccccc2)c2ccccc2)CC1 [CBK136943]	106	–
CCOC(=O)C1(C2CCCCC2)CCN(C(=O)C2CCN(C)CC2)CC1 [CBK136948]	92.7	–
CCNC(=O)N1CC2(CCN(Cc3ccc4nsnc4c3)CC2)c2ccccc21 [CBK136968]	102	–
CC(C)C(=O)N1CC2(CCN(Cc3nc4ccccc4s3)CC2)c2ccccc21 [CBK136980]	96	–
CCN1CC2(CCN(Cc3nc4ccccc4s3)CC2)c2ccccc21 [CBK136993]	108	–
CCN1CC2(CCN(Cc3ccc4nsnc4c3)CC2)c2ccccc21 [CBK136994]	87.7	–
O=C(CO)N1CC2(CCN(CCc3cccc4ccccc34)CC2)c2ccccc21 [CBK137003]	91.8	–
O=C(CO)N1CC2(CCN(Cc3cccc4cccnc34)CC2)c2ccccc21 [CBK137004]	104	–
N#CCCCN1CCC2(CC1)CN(C(=O)CO)c1ccccc12 [CBK137007]	86	–
OCCN1CC2(CCN(Cc3c(F)cccc3F)CC2)c2ccccc21 [CBK137010]	109	–
OCCN1CC2(CCN(CCc3cccc4ccccc34)CC2)c2ccccc21 [CBK137013]	106	–
OCCN1CC2(CCN(Cc3cccc4cccnc34)CC2)c2ccccc21 [CBK137014]	95.1	–
N#CCCCN1CCC2(CC1)CN(CC(N)=O)c1ccccc12 [CBK137024]	97.7	–
Cc1cnc(CNC(=O)Cn2nnc(-c3ccc(CN4CCC(C)CC4)cc3)n2)cn1 [CBK137067C]	101	–
O=C(c1ccc2occc2c1)N1CCCC2(CCN(C(=O)c3cc(F)c(F)cc3F)C2)C1 (centres unmarked) [CBK137071]	90.1	–
